Measured values reported in US11351218B2, “Composition for preventing or treating glioblastoma comprising Platycodon grandiflorum A. De Candolle, Scutellaria baicalensis, Phellodendron amurense Ruprecht or Rubus coreanus” (University-Industry Cooperation Group of Kyung Hee …, priority 2019, dated 2022).

Assays:
[1] = system: A549, H358, MCF7, HT29 and HepG2 cells; experiment: WST1 cell viability assay in various cancer cell lines; format: cell-based; settings: different concentrations, 48 hours, all cell lines tested
Description: FIGS. 9A to 9C show the results that PD decreases cell viability and vacuole formation in various cancer cell lines. FIGS. 9A and 9B show the results in which indicated cells were treated with different concentrations of PG or PD for 48 hours and cell viability was measured by WST1 assay. Data shown represent the means of quintuplicate measurements which were repeated three times. The results are presented as a percentage of control (means±SD).
Cell cytotoxicity was assessed by WST1 assay. U87 and U373 cells were each seeded in a 96-well plate (5×10^3 cells/well) and treated with different concentrations of platycodin D (PD). Then, cells were incubated with a WST1 reagent (Dogen, Seoul, Korea) for 2 hours before reading the plate. Absorbance was measured at 450 nm using an ELISA reader (Versa Max, Molecular Devices, Sunnyvale, Calif., USA).
Previously, PD was reported to inhibit cell viability in various cancer cell lines. To further confirm the effects of PD on the cytotoxicity of cancer cells, WST1 assay was performed following treatment with different concentrations of PD.

[2] = system: U87MG and U373MG cells; experiment: BODIPY FL LDL uptake assay, GBM cells; format: cell-based, human; settings: PD 10 μM 24 hours, BODIPY FL LDL 1 hour
Description: Cells were treated with DMSO, PD (10 μM), or U18 (1 μM) for 24 hours and subsequently loaded with BODIPY™ FL LDL. BODIPY-LDL uptake was visualized by confocal microscopy. Nuclei were stained with DAPI (blue). Quantification shown on the right graph represents a relative fold change from three independent experiments±SD.
Cells seeded on coverslips were treated with the materials and then the culture medium was replaced with BODIPY™ FL LDL (Thermo Fisher Scientific) at a working concentration of 5 μg/mL in a medium. The cells were additionally incubated at 37° C. for 1 hour. The degree of LDL uptake was measured using a Zeiss laser confocal microscope.
Based on the previous study results of the present inventors that PD increases cell surface LDLR expression and accumulate cholesterol within lysosomes, whether PD can increase the uptake of exogenous LDL was examined Cells pretreated with PD or U18666A were incubated with BODIPY FL-labeled LDL particles for 1 hour and the LDL uptake was observed by a confocal microscope. Upon analysis of these cells, it was observed that PD caused about a 6-fold increase in LDL uptake and it was a level similar to that detected in the U18666A-treated cells.

[3] = system: A549, H358, MCF7, HT29 and HepG2 cells; experiment: Cell morphology (vacuoles) under optical microscope in various cancer cell lines; format: cell-based; settings: PG 500 μg/mL or PD 10 μM, 24 hours
[4] = system: LC3B and SQSTM1/p62; experiment: Immunoblot of LC3B and SQSTM1/p62 in GBM cells (U87MG and U373MG); format: cell-based, human
Description: FIGS. 2A and 2B show the results that an extract of Platycodon grandiflorum (PG) increases the levels of LC3-II and p62. […] GAPDH was used as a loading control.
FIGS. 3A to 3C show the results that PD inhibits autophagic flux in GBM cells. […] The expression of LC3B and SQSTM1 was confirmed by immunoblot analysis. […] GAPDH was used as a loading control.
The human glioma cell lines, U87MG and U373MG, were cultured respectively in RPMI-1640 (Welgene) and DMEM (Welgene, Daegu, Korea) supplemented with 10% fetal bovine serum (FBS, JR Scientific) and 1% antibiotics (Ab, Welgene). All cultures were maintained at 37° C. in a humidified incubator containing 5% CO2.
Cells treated with the concentrations and materials described in FIGS. 1-3B, 7, 8, 10, 13, 16, 18, and 20 were lysed in buffer containing 20 mM Tris-HCl (pH 7.5), 150 mM NaCl, 1 mM EDTA, 1 mM Na2EDTA, 1 mM EGTA, 1% NP-40, 1% sodium deoxycholate, 1 mM Na3VO4, 1 mM MPI, 1 mM PMSF, and PI cocktails for 15 to 20 minutes on ice. Cell lysates were separated by SDS-PAGE and transferred to nitrocellulose membranes. Immunodetection was performed with the following primary antibodies: rabbit anti-LC3B, rabbit anti-cathepsin B, rabbit-anti GAPDH (Cell Signaling Technology, Danvers, Mass.), mouse anti-SQSTM1/p62, and goat anti-cathepsin D (Santa CruzKPL, Gaithersburg, Md., USA) were incubated at room temperature for 1 hour. The protein bands were detected with ECL western Blotting Substrate (Thermo Fisher Scientific, Waltham, Mass., USA).

[5] = system: cell-surface LDLR; experiment: Cell surface LDLR analysis by flow cytometry, GBM cells; format: cell-based, human; settings: PD 10 μM or U18666a 1 μM, 24 hours
Description: FIGS. 16A to 16D show the results that PD increases the expression of LDLR on cell surfaces in GBM cells. […] GAPDH was used as a loading control. […] GAPDH was used as a loading control.
Cells treated as described in FIG. 16 were separated from plates and resuspended in PBS. After washing with 1% BSA in PBS, the cells were incubated with a primary antibody against human LDLR (Abcam) for 30 minutes. Then, the cells were washed before incubation with an Alexa-Fluor 488-conjugated secondary antibody (Invitrogen) for 30 minutes. The stained cells were washed and resuspended. Fluorescence was analyzed by a FACScalibur flow cytometer (Becton Dickinson, San Jose, Calif., USA) using CellQuest™ software.
Brain is the most cholesterol-rich organ of the body, containing about 20% of total body cholesterol. […] As can be confirmed in FIG. 16A, in consistent with these reports, the LDLR protein level was markedly elevated in U87MG and U373MG cells relative to normal human astrocytes. […] Then, the cell surface expression of LDLR was confirmed by flow cytometry.

## C[C@@H]1O[C@@H](O[C@H]2[C@H](OC(=O)[C@]34CCC(C)(C)C[C@H]3C3=CC[C@@H]5[C@@]6(C)C[C@H](O)[C@H](O[C@@H]7O[C@H](CO)[C@@H](O)[C@H](O)[C@H]7O)C(CO)(CO)[C@@H]6CC[C@@]5(C)[C@]3(C)C[C@H]4O)OC[C@H](O)[C@@H]2O)[C@H](O)[C@H](O)[C@H]1O[C@@H]1OC[C@@H](O)[C@H](O[C@@H]2OC[C@](O)(CO)[C@H]2O)[C@H]1O [PD, platycodin D]
[1]
  cell viability: suppressed the-viability in a dose-dependent manner
[2]
  increase in LDL uptake: ~6 fold
[3]
  vacuoles: visible vacuoles were observed
[4]; 10 μM PD, 3 hours to 24 hours
  LC3B-II and p62 levels over time: time-dependent increases
[4]; PD 0 μM to 10 μM, 24 hours
  LC3B-II and p62 levels: dose-dependent increases
  concentration of maximum activity (LC3B-II and p62 levels): 10 µM
[5]
  cell surface expression of LDLR: shift of the FL-1 histogram peak toward right
